Measured values from US9737545B2 (MERCK SHARP & DOHME CORP., priority 2013, dated 2017).

Columns and labels:
[1] = tested on: HIV-1 (H9IIIB strain); experiment: Antiviral Assays in Cell Culture (Spread), acute infection assay; assay type: cell-based; conditions: Human immunodeficiency virus 1, T-lymphoid, read-out: Viking 50% (nM)
Excerpt: Antiviral Assays in Cell Culture (“Spread”)
Acute Infection Assay (“Spread”) data were generated using HIV-1 (H9IIIB strain) infection of MT-4 human T-lymphoid cells in 10% FBS, and according to the methods disclosed by J. P. Vacca et al, “L-735,524: An orally bioavailable human immunodeficiency virus type 1 protease inhibitor,” Proc. Natl. Acad. Sci. USA, Vol. 91, pp. 4096-4100 (April 1994).

[2] = target: T1, wildtype HIV-1 protease (Human immunodeficiency virus type 1 group M subtype B, UniProt P04585); experiment: Assay for Inhibition of Microbial Expressed HIV Protease (Pepcleav); assay type: biochemical
T1 construct: preincubated with the HIV-1 protease (wild type) enzyme in assay buffer; made in house; host or cells: Escherichia coli
Method in brief: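 E. coli-expressed wildtype protease (20 pM final) preincubated with inhibitor 30 min at room temperature in 50 mM sodium acetate pH 5.5, 100 mM NaCl, 0.1% BSA. Reaction with 400 μM peptide substrate ran 1 h at 30° C. Inhibition derived from LC-MS/MS (MRM) product peak area.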

SMILES | EC50 [1] | IC50 [2]
Cc1cc2nc([C@@H]3CO[C@H](CCc4c(F)cncc4NC(=O)C[C@@H](c4ccc(F)cc4)c4ccncc4F)CN3)[nH]c2cc1C [Example 63, (3S)—N-(4-{2-[(2R,5R)-5-(5,6-dimethyl-1H-benzimidazol-2-yl)morpholin-2-yl]ethyl}-5-fluoropyridin-3-yl)-3-(4-fluorophenyl)-3-(3-fluoropyridin-4-yl)propanamide] | 63 nM | 
Cc1cc2nc([C@@H]3CO[C@H](CCc4c(F)cncc4NC(=O)C[C@@H](c4ccc(F)cc4)c4cc(F)cc(F)c4)CN3)[nH]c2cc1C [Example 64, (3S)-3-(3,5-difluorophenyl)-N-(4-{2-[(2R,5R)-5-(5,6-dimethyl-1H-benzimidazol-2-yl)morpholin-2-yl]ethyl}-5-fluoropyridin-3-yl)-3-(4-fluorophenyl)propanamide] | 16 nM | 
O=C(C[C@@H](c1ccc(F)cc1)c1cc(F)cc(F)c1)Nc1cncc(F)c1CC[C@@H]1CN[C@H](c2nc3ccc(Cl)cc3[nH]2)CO1 [Example 65, (3S)—N-(4-{2-[(2R,5R)-5-(6-chloro-1H-benzimidazol-2-yl)morpholin-2-yl]ethyl}-5-fluoropyridin-3-yl)-3-(3,5-difluorophenyl)-3-(4-fluorophenyl)propanamide] | 13 nM | 
Cc1ccc2nc([C@@H]3CO[C@H](CCc4c(F)cncc4NC(=O)C[C@@H](c4ccc(F)cc4)c4cc(F)cc(F)c4)CN3)[nH]c2c1 [Example 66, (3S)-3-(3,5-difluorophenyl)-N-(5-fluoro-4-{2-[(2R,5R)-5-(6-methyl-1H-benzimidazol-2-yl)morpholin-2-yl]ethyl}pyridin-3-yl)-3-(4-fluorophenyl)propanamide] | 22 nM | 
Cc1cc2nc([C@@H]3CO[C@H](CCc4c(F)cncc4NC(=O)C[C@H](c4cccc(F)c4)c4ccc(Cl)c(F)c4)CN3)[nH]c2cc1C [Example 67, (3R)-3-(4-chloro-3-fluorophenyl)-N-(4-{2-[(2R,5R)-5-(5,6-dimethyl-1H-benzimidazol-2-yl)morpholin-2-yl]ethyl}-5-fluoropyridin-3-yl)-3-(3-fluorophenyl)propanamide] | 23 nM | 
Cc1cc2nc([C@@H]3CO[C@H](CCc4c(F)cncc4NC(=O)C[C@H](c4cncc(F)c4)c4ccc(Cl)c(F)c4)CN3)[nH]c2cc1C [Example 68, (3S)-3-(4-chloro-3-fluorophenyl)-N-(4-{2-[(2R,5R)-5-(5,6-dimethyl-1H-benzimidazol-2-yl)morpholin-2-yl]ethyl}-5-fluoropyridin-3-yl)-3-(5-fluoropyridin-3-yl)propanamide] | 52 nM | 
Cc1cc2nc([C@@H]3CO[C@H](CCc4c(F)cncc4NC(=O)C[C@H](c4ccccc4)c4ccc(F)cc4)CN3)[nH]c2cc1C [Example 69, (3R)—N-(4-{2-[(2R,5R)-5-(5,6-dimethyl-1H-benzimidazol-2-yl)morpholin-2-yl]ethyl}-5-fluoropyridin-3-yl)-3-(4-fluorophenyl)-3-phenylpropanamide] | 80 nM | 0.01 nM
N[C@H](C(=O)Nc1cncc(F)c1CC[C@@H]1CN[C@H](c2nc3cc(F)c(F)cc3[nH]2)CO1)C(c1ccc(F)cc1)c1ccc(F)cc1 [Example 93, N-(4-{2-[(2R,5R)-5-(5,6-difluoro-1H-benzimidazol-2-yl)morpholin-2-yl]ethyl}-5-fluoropyridin-3-yl)-4-fluoro-β-(4-fluorophenyl)-L-phenylalaninamide] |  | 0.02 nM
N[C@H](C(=O)Nc1cccc(F)c1OC[C@@H]1CN[C@H](c2nc3ccccc3[nH]2)CO1)C(c1ccccc1)c1ccccc1 [Example 94, N-(2-{[(2S,5R)-5-(1H-benzimidazol-2-yl)morpholin-2-yl]methoxy}-3-fluorophenyl)-β-phenyl-L-phenylalaninamide] |  | 0.22 nM
COC(=O)N[C@H](C(=O)Nc1cncc(F)c1CC[C@@H]1CN[C@H](c2nc3cc(C)c(C)cc3[nH]2)CO1)C(c1ccc(F)cc1)c1ccc(F)cc1 [Example 95, N-(4-{2-[(2R,5R)-5-(5,6-dimethyl-1H-benzimidazol-2-yl)morpholin-2-yl]ethyl}-5-fluoropyridin-3-yl)-4-fluoro-β-(4-fluorophenyl)-Nalpha-(methoxycarbonyl)-L-phenylalaninamide] |  | 0.03 nM
O=C(CC(c1ccc(F)cc1)c1ccc(F)cc1)Nc1cccc(F)c1CC[C@@H]1CN[C@H](c2nc3ccccc3[nH]2)CO1 [Example 97, N-(2-{2-[(2R,5R)-5-(1H-benzimidazol-2-yl)morpholin-2-yl]ethyl}-3-fluorophenyl)-3,3-bis(4-fluorophenyl) propanamide] |  | 0.04 nM
O=C(C[C@@H](c1ccc(F)cc1)c1ccc(F)cc1F)Nc1cccc(F)c1CC[C@@H]1CN[C@H](c2nc3ccccc3[nH]2)CO1 [Example 98, (3S)-N-(2-{2-[(2R,5R)-5-(1H-benzimidazol-2-yl)morpholin-2-yl]ethyl}-3-fluorophenyl)-3-(2,4-difluorophenyl)-3-(4-fluorophenyl) propanamide] |  | 0.05 nM
O=C(CCc1ccccc1Cl)Nc1cccc(F)c1CC[C@@H]1CN[C@H](c2nc3ccccc3[nH]2)CO1 [Example 99, N-(2-{2-[(2R,5R)-5-(1H-benzimidazol-2-yl)morpholin-2-yl]ethyl}-3-fluorophenyl)-3-(2-chlorophenyl) propanamide] |  | 11 nM
O=C(CC(c1ccccc1)c1ccccc1)Nc1cccc(F)c1CC[C@@H]1CN[C@H](c2nc3ccccc3[nH]2)CO1 [Example 100, N-(2-{2-[(2R,5R)-5-(1H-benzimidazol-2-yl)morpholin-2-yl]ethyl}-3-fluorophenyl)-3,3-diphenylpropanamide] |  | 0.65 nM
N[C@H](C(=O)Nc1cncc(F)c1CC[C@@H]1CN[C@H](c2nc3cc(C(=O)NCC(F)(F)F)ccc3[nH]2)CO1)C(c1ccccc1)c1ccccc1 [Example 101, N-(5-fluoro-4-{2-[(2R,5R)-5-{5-[(2,2,2-trifluoroethyl)carbamoyl]-1H-benzimidazol-2-yl}morpholin-2-yl]ethyl}pyridin-3-yl)-β-phenyl-L-phenylalaninamide] |  | 26 nM
N[C@@H](Cc1ccccc1Cl)C(=O)Nc1cccc(F)c1CC[C@@H]1CN[C@H](c2nc3ccccc3[nH]2)CO1 [Example 102, N-(2-{2-[(2R,5R)-5-(1H-benzimidazol-2-yl)morpholin-2-yl]ethyl}-3-fluorophenyl)-2-chloro-L-phenylalaninamide] |  | 17 nM
O=C(COc1ccccc1Cl)Nc1cccc(F)c1CC[C@@H]1CN[C@H](c2nc3ccccc3[nH]2)CO1 [Example 103, N-(2-{2-[(2R,5R)-5-(1H-benzimidazol-2-yl)morpholin-2-yl]ethyl}-3-fluorophenyl)-2-(2-chlorophenoxy) acetamide] |  | 31 nM
Cc1cc2nc([C@@H]3CO[C@H](COc4c(F)cccc4NC(=O)C[C@@H](c4ccc(F)cc4)c4cc(F)cc(F)c4)CN3)[nH]c2cc1C [Example 104, (3S)-3-(3,5-difluorophenyl)-N-(2-{[(2S,5R)-5-(5,6-dimethyl-1H-benzimidazol-2-yl)morpholin-2-yl]methoxy}-3-fluorophenyl)-3-(4-fluorophenyl) propanamide] |  | 1.1 nM
